ChEMBL document CHEMBL4177745, “2-Methyltetrahydro-3-benzazepin-1-ols - The missing link in SAR of GluN2B selective NMDA receptor antagonists” (Bioorg Med Chem, 2018)

Key:
[1] = biological target: Sigma non-opioid intracellular receptor 1 (Cavia porcellus, UniProt Q60492); experiment: Displacement of [3H]-(+)-Pentazocine from sigma 1 receptor in guinea pig brain cortex membranes after 120 mins by scintillation counting analysis; assay type: cell membranes
[2] = Selectivity ratio of Ki for recombinant human GluN1a/GluN2B expressed in L(tk-) cell membranes to Ki for sigma 1 receptor in guinea pig brain cortex membranes; assay type: cell-based
[3] = Displacement of [3H]-ifenprodil from recombinant human GluN1a/GluN2B expressed in L(tk-) cell membranes after 120 mins by scintillation counting analysis
[4] = biological target: T1, Sigma intracellular receptor 2 (Rattus norvegicus, UniProt Q5U3Y7); experiment: Displacement of [3H]-DTG from sigma 2 receptor in rat liver membranes after 120 mins by scintillation counting analysis; assay type: cell membranes, Membrane
T1 sequence (Q5U3Y7 whole entry): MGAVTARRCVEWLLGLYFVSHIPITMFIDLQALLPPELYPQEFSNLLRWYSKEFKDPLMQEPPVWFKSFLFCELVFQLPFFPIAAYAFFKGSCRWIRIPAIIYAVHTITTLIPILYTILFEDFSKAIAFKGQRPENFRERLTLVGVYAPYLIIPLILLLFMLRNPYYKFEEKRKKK

Sequence of Sigma non-opioid intracellular receptor 1 (Q60492 whole entry): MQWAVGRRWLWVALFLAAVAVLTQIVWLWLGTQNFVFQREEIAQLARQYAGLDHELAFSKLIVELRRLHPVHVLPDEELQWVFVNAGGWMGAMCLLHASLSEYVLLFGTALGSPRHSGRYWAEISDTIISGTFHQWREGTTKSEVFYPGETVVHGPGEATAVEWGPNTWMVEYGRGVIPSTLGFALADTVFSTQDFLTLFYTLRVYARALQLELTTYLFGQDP

SMILES	Ki [1] [µM]	Ratio Ki [2]	Ki [3] [µM]	Ki [4] [µM]
C[C@@H]1[C@H](O)c2ccccc2CCN1CCCCCc1ccccc1 (relative stereo)	0.01	5	0.056	0.06
CC(C(O)c1ccc(O)cc1)N1CCC(Cc2ccccc2)CC1 (centres undefined) [IFENPRODIL]	–	–	0.01	–
C[C@@H]1[C@H](O)c2ccc(O)cc2CCN1CCCCc1ccccc1	–	–	0.017	0.148
C[C@@H]1[C@H](O)c2ccccc2CCN1CCCCc1ccccc1 (relative stereo)	0.046	5	0.252	0.126
C[C@@H]1[C@H](O)c2ccccc2CCN1Cc1ccccc1 (relative stereo)	0.261	–	0.259	0.894
OC1CN(CCCCc2ccccc2)CCc2ccccc21 (centres undefined)	0.676	–	0.073	0.076
Oc1ccc2c(c1)CCN(CCCCc1ccccc1)CC2O (centres undefined)	–	–	0.014	> 10
